Read-outs that look alike come from different tables or passages of the source.
Legend:
MM.1S = test: Tumor cell proliferation inhibition (CellTiter-Meiluncell Luminescent Cell Viability Assay), MM.1S; settings: Homo sapiens, MM1.S, read-out: inhibitory activity (IC50, nM) against tumor cells proliferation, MM.1S
Method: (§1) The tumor cells used herein were cultured in a cell culture medium listed in table 2 at 37°C in an incubator with 5% CO2. Prior to experimentation, all cell lines used were correctly identified by STR profiling, and tested negative for mycoplasma contamination using a mycoplasma detection kit through routine screenings.
(§2) On the following day, the test compounds of the present disclosure were subjected to serial dilution. […] Subsequently, 0.5 µL of the test compound dilution was transferred into the 96-well plate containing the cells, with each well containing 100 µL of cell culture medium. […] Into the 96-well plate, the diluted test compounds and corresponding detection reagents were added, resulting in final test compound concentrations of 500 nM and 10 nM, respectively.
(§3) After the cells were treated with the compounds of the present disclosure for a specified period (the treatment durations were shown in Table 3), the cell viability assay reagent was added to the culture medium according to the kit's instructions to determine cell viability. […] All controls were treated using the same procedure as the compounds of the present disclosure. The growth inhibition curves for the compounds of the present disclosure were plotted using Prism GraphPad software, and the IC50 values were calculated therefrom.

IKZF3 = target: T1, IKZF3 (Homo sapiens, UniProt Q96SW2+Q9UKT9); test: Western-blot assay of substrate protein degradation in hPBMCs, IKZF3; format: cell-based; settings: 24 hours of compound treatment, 50 nM and 500 nM tested (concentration behind the class not stated)
T1 construct: endogenous in cells; host or cells: hPBMCs (Milecell Biotechnologies)
T1 sequence (Q9UKT9 whole entry): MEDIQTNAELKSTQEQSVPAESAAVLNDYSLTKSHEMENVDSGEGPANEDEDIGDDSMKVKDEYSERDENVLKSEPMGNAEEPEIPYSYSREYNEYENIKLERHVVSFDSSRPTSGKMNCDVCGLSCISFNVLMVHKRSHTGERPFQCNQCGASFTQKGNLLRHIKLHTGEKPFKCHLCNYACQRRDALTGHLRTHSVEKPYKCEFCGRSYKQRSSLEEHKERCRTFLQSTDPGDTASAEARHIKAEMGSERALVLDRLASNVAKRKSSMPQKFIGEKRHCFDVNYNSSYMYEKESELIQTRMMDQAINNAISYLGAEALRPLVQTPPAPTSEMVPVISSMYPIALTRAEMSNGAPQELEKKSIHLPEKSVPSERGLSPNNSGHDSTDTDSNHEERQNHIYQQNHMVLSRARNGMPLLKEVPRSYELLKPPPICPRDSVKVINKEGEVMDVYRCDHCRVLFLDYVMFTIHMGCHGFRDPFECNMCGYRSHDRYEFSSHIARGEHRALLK
T1 sequence (Q96SW2 whole entry): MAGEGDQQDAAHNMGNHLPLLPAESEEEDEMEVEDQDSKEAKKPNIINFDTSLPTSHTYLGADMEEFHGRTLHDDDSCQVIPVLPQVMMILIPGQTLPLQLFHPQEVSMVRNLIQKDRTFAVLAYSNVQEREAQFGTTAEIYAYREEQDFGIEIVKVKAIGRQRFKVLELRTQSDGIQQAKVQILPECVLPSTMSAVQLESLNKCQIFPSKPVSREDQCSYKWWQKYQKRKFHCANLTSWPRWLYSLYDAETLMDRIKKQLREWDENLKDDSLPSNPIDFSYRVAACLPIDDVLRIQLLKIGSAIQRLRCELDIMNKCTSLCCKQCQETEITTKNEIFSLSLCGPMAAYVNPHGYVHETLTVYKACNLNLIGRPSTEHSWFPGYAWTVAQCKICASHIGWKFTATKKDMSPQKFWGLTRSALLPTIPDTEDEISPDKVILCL
T1 sequence (Q16531 whole entry partner): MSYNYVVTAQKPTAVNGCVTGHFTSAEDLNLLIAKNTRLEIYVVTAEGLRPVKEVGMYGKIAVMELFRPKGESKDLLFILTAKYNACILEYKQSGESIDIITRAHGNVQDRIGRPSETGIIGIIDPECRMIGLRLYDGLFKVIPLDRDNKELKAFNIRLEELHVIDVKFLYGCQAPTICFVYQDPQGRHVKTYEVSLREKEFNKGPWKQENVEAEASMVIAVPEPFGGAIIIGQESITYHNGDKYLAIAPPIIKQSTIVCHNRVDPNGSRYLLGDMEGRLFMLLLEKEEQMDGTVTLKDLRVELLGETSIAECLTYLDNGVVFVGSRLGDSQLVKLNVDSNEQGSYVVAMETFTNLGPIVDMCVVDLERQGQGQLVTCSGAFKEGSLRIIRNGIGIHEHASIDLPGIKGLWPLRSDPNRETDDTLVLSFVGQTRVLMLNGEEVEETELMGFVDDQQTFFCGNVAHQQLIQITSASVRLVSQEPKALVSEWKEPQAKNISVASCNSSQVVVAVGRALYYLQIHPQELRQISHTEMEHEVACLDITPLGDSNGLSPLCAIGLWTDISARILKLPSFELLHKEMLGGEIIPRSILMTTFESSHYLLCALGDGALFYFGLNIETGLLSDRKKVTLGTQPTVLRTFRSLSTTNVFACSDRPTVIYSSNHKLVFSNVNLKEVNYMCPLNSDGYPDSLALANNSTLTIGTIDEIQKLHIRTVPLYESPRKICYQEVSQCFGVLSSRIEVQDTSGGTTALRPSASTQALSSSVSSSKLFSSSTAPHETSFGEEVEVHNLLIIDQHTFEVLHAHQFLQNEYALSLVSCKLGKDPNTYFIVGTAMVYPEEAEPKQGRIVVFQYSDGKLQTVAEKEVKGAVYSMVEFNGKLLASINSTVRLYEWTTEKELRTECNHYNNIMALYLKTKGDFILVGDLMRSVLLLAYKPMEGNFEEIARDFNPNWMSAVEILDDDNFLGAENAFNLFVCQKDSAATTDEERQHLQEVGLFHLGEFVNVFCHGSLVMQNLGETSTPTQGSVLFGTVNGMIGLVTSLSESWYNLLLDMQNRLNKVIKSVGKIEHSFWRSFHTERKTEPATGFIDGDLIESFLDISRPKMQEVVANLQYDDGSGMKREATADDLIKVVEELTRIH

WEE1 = target: T2, WEE1 (Homo sapiens, UniProt P30291+Q96SW2); test: Western-blot assay of substrate protein degradation in hPBMCs, WEE1; format: cell-based; settings: 24 hours of compound treatment, 50 nM and 500 nM tested (concentration behind the class not stated)
T2 construct: endogenous in cells; host or cells: hPBMCs (Milecell Biotechnologies)
T2 sequence (P30291 whole entry): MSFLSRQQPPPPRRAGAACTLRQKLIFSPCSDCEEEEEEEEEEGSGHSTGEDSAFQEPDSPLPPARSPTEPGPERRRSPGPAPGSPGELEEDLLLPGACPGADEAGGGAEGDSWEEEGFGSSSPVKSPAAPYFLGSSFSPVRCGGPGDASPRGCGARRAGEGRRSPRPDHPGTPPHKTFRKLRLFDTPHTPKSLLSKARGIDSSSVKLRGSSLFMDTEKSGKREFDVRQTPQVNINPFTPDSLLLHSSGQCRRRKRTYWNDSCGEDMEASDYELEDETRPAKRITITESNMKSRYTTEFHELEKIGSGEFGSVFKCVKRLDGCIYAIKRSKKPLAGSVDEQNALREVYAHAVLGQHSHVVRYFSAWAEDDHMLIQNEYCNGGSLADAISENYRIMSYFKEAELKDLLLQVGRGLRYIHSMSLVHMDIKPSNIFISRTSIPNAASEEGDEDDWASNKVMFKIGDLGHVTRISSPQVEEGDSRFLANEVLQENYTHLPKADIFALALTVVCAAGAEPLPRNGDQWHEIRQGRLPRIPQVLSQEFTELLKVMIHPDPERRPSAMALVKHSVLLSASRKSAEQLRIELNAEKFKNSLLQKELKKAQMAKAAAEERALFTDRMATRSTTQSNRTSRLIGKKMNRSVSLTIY
T2 sequence (Q96SW2 whole entry): as the sequence (Q96SW2 whole entry) above
T2 sequence (Q16531 whole entry partner): as the sequence (Q16531 whole entry partner) above

[1] = system: Human acute T lymphocytic leukemia cells (Molt-4); test: Tumor cell proliferation inhibition (CellTiter-Meiluncell Luminescent Cell Viability Assay), Molt-4; settings: for inhibition at 0.01 µM: MOLT-4, read-out: Inhibition rate (%) at 10 nM; for inhibition at 0.5 µM: MOLT-4, read-out: Inhibition rate (%) at 500 nM
GSPT1 = target: T3, GSPT1 (Homo sapiens, UniProt P15170+Q96SW2); test: Western-blot assay of substrate protein degradation in hPBMCs, GSPT1; format: cell-based; settings: 24 hours of compound treatment, 50 nM and 500 nM tested (concentration behind the class not stated)
T3 construct: endogenous in cells; host or cells: hPBMCs (Milecell Biotechnologies)
T3 sequence (P15170 whole entry): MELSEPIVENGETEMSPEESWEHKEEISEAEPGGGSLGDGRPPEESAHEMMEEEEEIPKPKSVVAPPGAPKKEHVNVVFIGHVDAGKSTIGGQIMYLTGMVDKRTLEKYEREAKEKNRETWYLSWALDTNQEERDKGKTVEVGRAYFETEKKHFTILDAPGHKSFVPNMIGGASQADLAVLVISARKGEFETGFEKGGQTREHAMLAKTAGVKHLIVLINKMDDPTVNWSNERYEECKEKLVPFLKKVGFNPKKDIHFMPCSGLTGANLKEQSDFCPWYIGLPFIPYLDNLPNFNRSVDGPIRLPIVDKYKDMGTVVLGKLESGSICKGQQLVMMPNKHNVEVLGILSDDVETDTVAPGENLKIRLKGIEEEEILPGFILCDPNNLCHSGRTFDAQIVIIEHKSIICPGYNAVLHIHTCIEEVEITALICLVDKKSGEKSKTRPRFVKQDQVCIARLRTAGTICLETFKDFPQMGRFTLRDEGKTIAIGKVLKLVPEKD
T3 sequence (Q96SW2 whole entry): as the sequence (Q96SW2 whole entry) above
T3 sequence (Q16531 whole entry partner): as the sequence (Q16531 whole entry partner) above

SR = test: Tumor cell proliferation inhibition (CellTiter-Meiluncell Luminescent Cell Viability Assay), SR; settings: Homo sapiens, read-out: inhibitory activity (IC50, nM) against tumor cells proliferation, SR
Method: as §1, §2, §3

NCI-H1975 = test: Tumor cell proliferation inhibition (CellTiter-Meiluncell Luminescent Cell Viability Assay), NCI-H1975; settings: Homo sapiens
IKZF2 = target: T4, IKZF2 (Homo sapiens, UniProt Q96SW2+Q9UKS7); test: Western-blot assay of substrate protein degradation in hPBMCs, IKZF2; format: cell-based; settings: 24 hours of compound treatment, 50 nM and 500 nM tested (concentration behind the class not stated)
T4 construct: endogenous in cells; host or cells: hPBMCs (Milecell Biotechnologies)
T4 sequence (Q9UKS7 whole entry): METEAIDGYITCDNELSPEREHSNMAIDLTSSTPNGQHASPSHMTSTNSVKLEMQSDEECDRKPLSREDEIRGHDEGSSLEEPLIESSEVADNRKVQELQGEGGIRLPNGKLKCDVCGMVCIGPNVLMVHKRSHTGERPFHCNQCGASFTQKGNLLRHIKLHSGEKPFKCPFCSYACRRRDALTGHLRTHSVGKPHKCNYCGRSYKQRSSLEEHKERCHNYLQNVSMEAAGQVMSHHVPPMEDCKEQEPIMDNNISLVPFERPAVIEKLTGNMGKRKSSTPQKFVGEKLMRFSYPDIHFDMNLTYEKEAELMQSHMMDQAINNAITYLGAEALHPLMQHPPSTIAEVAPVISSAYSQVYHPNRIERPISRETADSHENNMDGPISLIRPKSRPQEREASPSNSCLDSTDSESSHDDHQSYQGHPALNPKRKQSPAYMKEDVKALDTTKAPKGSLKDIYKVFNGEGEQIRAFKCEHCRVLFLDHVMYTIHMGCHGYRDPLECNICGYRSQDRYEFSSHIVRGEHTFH
T4 sequence (Q96SW2 whole entry): as the sequence (Q96SW2 whole entry) above
T4 sequence (Q16531 whole entry partner): as the sequence (Q16531 whole entry partner) above

[2] = target: T5, human Cereblon WT GST-tagged protein (Homo sapiens, UniProt Q96SW2); test: CRBN-binding affinity by HTRF (CEREBLON BINDING kit); settings: HTRF inhibitory activity, CEREBLON BINDING kit; read-out: HTRF IC50
T5 construct: purchased CISBIO 64BDCRBNPEH
T5 sequence (Q96SW2 whole entry): as the sequence (Q96SW2 whole entry) above

IKZF1 = target: T6, IKZF1 (Homo sapiens, UniProt Q13422+Q96SW2); test: Western-blot assay of substrate protein degradation in hPBMCs, IKZF1; format: cell-based; settings: 24 hours of compound treatment, 50 nM and 500 nM tested (concentration behind the class not stated)
T6 construct: endogenous in cells; host or cells: hPBMCs (Milecell Biotechnologies)

TMD8 = test: Tumor cell proliferation inhibition (CellTiter-Meiluncell Luminescent Cell Viability Assay), TMD8; settings: Homo sapiens
CCRF-CEM = test: Tumor cell proliferation inhibition (CellTiter-Meiluncell Luminescent Cell Viability Assay), CCRF-CEM; settings: Homo sapiens; for IC50: read-out: inhibitory activity (IC50, nM) against tumor cells proliferation, CCRF-CEM; for inhibition at 0.01 µM: read-out: Inhibition rate (%) at 10 nM; for inhibition at 0.5 µM: read-out: Inhibition rate (%) at 500 nM
Method: as §1
(§4) On the following day, the test compounds of the present disclosure were subjected to serial dilution. […] Subsequently, 0.5 µL of the test compound dilution was transferred into the 96-well plate containing the cells, with each well containing 100 µL of cell culture medium. […] Into the 96-well plate, the diluted test compounds and corresponding detection reagents were added, resulting in final test compound concentrations of 500 nM and 10 nM, respectively. The experimental procedure is described below using the diluted 2 µM test compound as an example.
as §3

MV-4-11 = test: Tumor cell proliferation inhibition (CellTiter-Meiluncell Luminescent Cell Viability Assay), MV-4-11; settings: Homo sapiens, MV4-11, read-out: inhibitory activity (IC50, nM) against tumor cells proliferation, MV-4-11
Method: as §1, §2, §3

CK1α = target: T7, CK1α (Homo sapiens, UniProt P48729+Q96SW2); test: Western-blot assay of substrate protein degradation in hPBMCs, CK1α; format: cell-based; settings: 24 hours of compound treatment, 50 nM and 500 nM tested (concentration behind the class not stated)
T7 construct: endogenous in cells; host or cells: hPBMCs (Milecell Biotechnologies)
T7 sequence (P48729 whole entry): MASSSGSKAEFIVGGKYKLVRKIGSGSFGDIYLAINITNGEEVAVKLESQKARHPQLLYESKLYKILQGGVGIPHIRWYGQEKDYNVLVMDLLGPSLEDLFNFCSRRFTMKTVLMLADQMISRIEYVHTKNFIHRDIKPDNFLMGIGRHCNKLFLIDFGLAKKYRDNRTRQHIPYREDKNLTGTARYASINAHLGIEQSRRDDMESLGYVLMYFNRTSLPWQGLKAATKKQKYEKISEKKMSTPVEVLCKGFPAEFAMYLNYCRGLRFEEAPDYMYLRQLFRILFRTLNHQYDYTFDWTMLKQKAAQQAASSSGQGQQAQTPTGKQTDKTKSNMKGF
T7 sequence (Q96SW2 whole entry): as the sequence (Q96SW2 whole entry) above
T7 sequence (Q16531 whole entry partner): as the sequence (Q16531 whole entry partner) above

Jurkat = test: Tumor cell proliferation inhibition (CellTiter-Meiluncell Luminescent Cell Viability Assay), Jurkat; settings: Homo sapiens, read-out: inhibitory activity (IC50, nM) against tumor cells proliferation, Jurkat
[3] = system: Human breast cancer cells (MDA-MB-231); test: Tumor cell proliferation inhibition (CellTiter-Meiluncell Luminescent Cell Viability Assay), MDA-MB-231; settings: for inhibition at 0.01 µM: MDA-MB-231, read-out: Inhibition rate (%) at 10 nM; for inhibition at 0.5 µM: MDA-MB-231, read-out: Inhibition rate (%) at 500 nM
Kasumi-1 = test: Tumor cell proliferation inhibition (CellTiter-Meiluncell Luminescent Cell Viability Assay), Kasumi-1; settings: Homo sapiens; for inhibition at 0.01 µM: Kasumi 1, read-out: Inhibition rate (%) at 10 nM; for inhibition at 0.5 µM: Kasumi 1, read-out: Inhibition rate (%) at 500 nM
Method: as §4, §3

Vcap = test: Tumor cell proliferation inhibition (CellTiter-Meiluncell Luminescent Cell Viability Assay), Vcap; settings: Homo sapiens, 96 h, read-out: inhibitory activity (IC50, nM) against tumor cells proliferation, Vcap
Method: as §1, §4, §3

MGC803 = test: Tumor cell proliferation inhibition (CellTiter-Meiluncell Luminescent Cell Viability Assay), MGC803; settings: Homo sapiens, MGC-803, 96 h, read-out: inhibitory activity (IC50, nM) against tumor cells proliferation, MGC803
Method: as §1, §2, §3

CAL-62 = test: Tumor cell proliferation inhibition (CellTiter-Meiluncell Luminescent Cell Viability Assay), CAL-62; settings: Homo sapiens, CAL-62, 96 h, read-out: inhibitory activity (IC50, nM) against tumor cells proliferation, CAL-62
MM.1R = test: Tumor cell proliferation inhibition (CellTiter-Meiluncell Luminescent Cell Viability Assay), MM.1R; settings: Homo sapiens, 96 h, read-out: inhibitory activity (IC50, nM) against tumor cells proliferation, MM.1R
Method: as §1, §4, §3

SW620 = test: Tumor cell proliferation inhibition (CellTiter-Meiluncell Luminescent Cell Viability Assay), SW620; settings: Homo sapiens, SW-620, 96 h, read-out: inhibitory activity (IC50, nM) against tumor cells proliferation, SW620
Method: as §1, §4, §3

[4] = MOLT-4, read-out: inhibitory activity (IC50, nM) against tumor cells proliferation, Molt-4
[5] = NCI-H1975, read-out: inhibitory activity (IC50, nM) against tumor cells proliferation, H1975
[6] = TMD8, read-out: inhibitory activity (IC50, nM) against tumor cells proliferation, TMD8

Structure (SMILES) | IC50 (MM.1S) [nM] | IKZF3 substrate protein remaining % (IKZF3) | Weel substrate protein remaining % (WEE1) | IC50 [1, 4] [nM] | GSPT1 substrate protein remaining % (GSPT1) | IC50 (SR) [nM] | IC50 (NCI-H1975; [5]) [nM] | IKZF2 substrate protein remaining % (IKZF2) | IKZF 1 substrate protein remaining % (IKZF1) | IC50 (TMD8; [6]) [nM] | IC50 (CCRF-CEM) [nM] | CK1a substrate protein remaining % (CK1α) | inhibition at 0.01 µM [1] [%] | inhibition at 0.5 µM [1] [%] | inhibition at 0.01 µM [3] [%] | inhibition at 0.5 µM [3] [%] | inhibition at 0.01 µM (CCRF-CEM) [%] | inhibition at 0.5 µM (CCRF-CEM) [%] | inhibition at 0.01 µM (Kasumi-1) [%] | inhibition at 0.5 µM (Kasumi-1) [%] | further results
O=C1CCC(N2C(=O)c3ccc(CN4CC=C(c5ncnc6sc(-c7ccccc7)cc56)CC4)cc3C2=O)C(=O)N1 (centres unmarked) [GT-06675, 2-(2,6-dioxopiperidin-3-yl)-5-((4-(6-phenylthieno[2,3-d]pyrimidin-4-yl)-3,6-dihydropyridin-1(2H)-yl)methyl)isoindoline-1,3-dione] | 100 to 500 | B (80%< substrate protein remaining %≤ 100%) | B (80%< substrate protein remaining %≤ 100%) | 10 to 50 | B (80%< substrate protein remaining %≤ 100%) | 500 to 1000 | 100 to 500 | B (80%< substrate protein remaining %≤ 100%) | B (80%< substrate protein remaining %≤ 100%) | 500 to 1000 | 10 to 50 | A (0% ≤ substrate protein remaining % ≤ 80%) |  |  |  |  |  |  |  |  | IC50 [2]: 0.5 to 1 µM; IC50 (MV-4-11): 50 to 100 nM; IC50 (Jurkat): 50 to 100 nM
O=C1CCC(N2C(=O)c3ccc(CN4CC=C(c5cccc(Cl)c5Cl)CC4)cc3C2=O)C(=O)N1 (centres unmarked) [GT-07842, 5-((4-(2,3-dichlorophenyl)-3,6-dihydropyridin-1(2H)-yl)methyl)-2-(2,6-dioxopiperidin-3-yl)isoindoline-1,3-dione] |  | A (0% ≤ substrate protein remaining % ≤ 80%) | B (80%< substrate protein remaining %≤ 100%) |  | A (0% ≤ substrate protein remaining % ≤ 80%) |  |  | A (0% ≤ substrate protein remaining % ≤ 80%) | A (0% ≤ substrate protein remaining % ≤ 80%) |  |  | B (80%< substrate protein remaining %≤ 100%) | 20 to 30 | 80 to 90 | 20 to 30 | 20 to 30 | 20 to 30 | 90 to 100 | 30 to 40 | 40 to 50 | 
O=C1CCC(N2C(=O)c3ccc(CN4CCN(c5nc(N6CCCCC6)nc6c5SCC6)CC4)cc3C2=O)C(=O)N1 (centres unmarked) [GT-08003, 2-(2,6-dioxopiperidin-3-yl)-5-((4-(2-(piperidin-1-yl)-6,7-dihydrothieno[3,2-d]pyrimidin-4-yl)piperazin-1-yl)methyl)isoindoline-1,3-dione] |  | A (0% ≤ substrate protein remaining % ≤ 80%) | B (80%< substrate protein remaining %≤ 100%) |  | A (0% ≤ substrate protein remaining % ≤ 80%) |  |  | A (0% ≤ substrate protein remaining % ≤ 80%) | A (0% ≤ substrate protein remaining % ≤ 80%) |  |  | A (0% ≤ substrate protein remaining % ≤ 80%) | 20 to 30 | 90 to 100 | 30 to 40 | 30 to 40 | 20 to 30 | 90 to 100 | 5 to 10 | 80 to 90 | 
O=C1CCC(N2C(=O)c3ccc(CN4CC(=C5CCOc6cc(F)ccc65)C4)cc3C2=O)C(=O)N1 (centres unmarked) [GT-08134, 2-(2,6-dioxopiperidin-3-yl)-5-((3-(7-fluorochroman-4-ylidene)azetidin-1-yl)methyl)isoindoline-1,3-dione] |  | A (0% ≤ substrate protein remaining % ≤ 80%) | B (80%< substrate protein remaining %≤ 100%) |  | A (0% ≤ substrate protein remaining % ≤ 80%) |  |  | A (0% ≤ substrate protein remaining % ≤ 80%) | A (0% ≤ substrate protein remaining % ≤ 80%) |  |  | B (80%< substrate protein remaining %≤ 100%) |  |  | 30 to 40 | 20 to 30 | 15 to 20 | 60 to 80 | 10 to 15 | 60 to 80 | 
Nc1cccc2c1CN(C1CCC(=O)NC1=O)C2=O (centres unmarked) [lenalidomide, reference compound] |  |  |  |  |  |  |  |  |  |  |  |  | 15 to 20 | 10 to 15 | 15 to 20 | 10 to 15 | 10 to 15 | 10 to 15 | 5 to 10 | 0 to 5 | 
Nc1cccc2c1C(=O)N(C1CCC(=O)NC1=O)C2=O (centres unmarked) [pomalidomide, reference compound] | 500 to 1000 |  |  | > 10000 |  | > 10000 | > 10000 |  |  | 5000 to 10000 | > 10000 |  |  |  |  |  |  |  |  |  | IC50 ([1]; MOLT-4, 96 h, read-out: inhibitory activity (IC50, nM) against tumor cells proliferation, Molt 4): > 10000 nM; IC50 ([3]; MDA-MB-231, 96 h, read-out: inhibitory activity (IC50, nM) against tumor cells proliferation, MDA-MB-231): > 10000 nM; IC50 (Vcap): > 10000 nM; IC50 (SR; 96 h): > 10000 nM; IC50 (NCI-H1975; NCI-H1975, 96 h, read-out: inhibitory activity (IC50, nM) against tumor cells proliferation, H1975): > 10000 nM; IC50 (TMD8; TMD8, 96 h, read-out: inhibitory activity (IC50, nM) against tumor cells proliferation, TMD8): 5000 to 10000 nM; IC50 (MGC803): > 10000 nM; IC50 (CCRF-CEM; 96 h): > 10000 nM; IC50 (CAL-62): > 10000 nM; IC50 (MM.1R): > 10000 nM; IC50 (MV-4-11): > 10000 nM; IC50 (SW620): > 10000 nM; IC50 (Jurkat; 96 h): > 10000 nM; IC50 (Jurkat): > 10000 nM

— patent EP4745137A1 (Gluetacs Therapeutics (Shanghai) Co., Ltd., priority 2023, dated 2025)
